From PubChem BioAssay (NCI)
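The compound was tested at five concentrations on cells cultured in 96-well plates, with a 48-hour exposure period. At the GI50, growth is halved. At the TGI there is no net growth.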

Tests used:
Assay in all cases: NCI tumour cell line growth inhibition, 48 h
PC-3 prostate = system: PC-3 prostate
DMS 114 small cell lung = system: DMS 114 small cell lung
KM20L2 colon = system: KM20L2 colon
LXFL 529 NSCLC = system: LXFL 529 NSCLC
HOP-18 NSCLC = system: HOP-18 NSCLC
DMS 273 small cell lung = system: DMS 273 small cell lung
RXF-631 renal = system: RXF-631 renal
DLD-1 colon = system: DLD-1 colon
M19-MEL melanoma = system: M19-MEL melanoma
XF 498 CNS = system: XF 498 CNS
P388 leukemia = system: P388 leukemia
P388/ADR leukemia = system: P388/ADR leukemia
SN12K1 renal = system: SN12K1 renal
DU-145 prostate = system: DU-145 prostate

Compound | TGI (PC-3 prostate) [µM] | TGI (KM20L2 colon) [µM] | TGI (HOP-18 NSCLC) [µM] | TGI (DMS 273 small cell lung) [µM] | TGI (DLD-1 colon) [µM] | TGI (M19-MEL melanoma) [µM] | TGI (DU-145 prostate) [µM] | also measured
COc1cc(C2S/C(=C/c3ccccc3)C(=O)N2c2ccccc2Cl)cc(OC)c1OC (stereo not given) | 58.2 |  |  |  |  |  |  | 
O=C(O)CN=c1c2ccccc2n(O)c2ccccc12 |  | > 100 | > 100 | > 100 | > 100 | > 100 |  | TGI (DMS 114 small cell lung): > 100 µM; TGI (LXFL 529 NSCLC): > 100 µM; TGI (RXF-631 renal): > 100 µM
NC(=S)N/N=C/c1ccc(OC(=O)COc2ccccc2Cl)cn1 |  | > 100 | > 100 | > 71.6 | > 100 | > 92.2 |  | TGI (XF 498 CNS): > 92 µM; TGI (P388 leukemia): 13.4 µM; TGI (P388/ADR leukemia): 20.7 µM; TGI (SN12K1 renal): > 100 µM
COc1cc(Cc2ccc3c(c2C#N)N(C)c2ccccc2S3)cc(OC)c1OC |  | > 100 | > 100 | > 100 | > 100 | > 100 |  | TGI (XF 498 CNS): > 100 µM; TGI (DMS 114 small cell lung): > 100 µM; TGI (LXFL 529 NSCLC): > 100 µM
C/C(=N\NC(=S)Nc1ccc(Cl)cc1)c1nc2ncccc2[nH]1 | 17.4 |  |  |  |  |  | 14.1 | 
C/C([O-])=C(/c1nc(-c2ccc([N+](=O)[O-])o2)no1)[n+]1cc(C)ccc1C |  | 27.5 | 21.8 | 26.1 | 24.7 | 17.6 |  | TGI (XF 498 CNS): 21.1 µM; TGI (DMS 114 small cell lung): 38.9 µM; TGI (P388 leukemia): > 100 µM; TGI (P388/ADR leukemia): > 100 µM; TGI (SN12K1 renal): 28.6 µM
BrC1=CN2C[n+]3cc(Br)c4ccccc4c3N=C2c2ccccc21 | 33.9 |  |  |  |  |  | 33.3 | 
Cc1nc(N(CCO)CCO)c2sc(=S)n(-c3ccccc3)c2n1 |  |  | > 100 |  | > 100 |  |  | TGI (LXFL 529 NSCLC): > 100 µM
Cc1ncc(CO)c(C=NCCCCCCN=Cc2c(CO)cnc(C)c2O)c1O | > 100 |  |  |  |  |  | > 100 | 
COC(=O)C1=C(O)C(C(=O)OC)[C@@]2(O)[C@@H](C(=O)OC)CC[C@@H]1[C@@H]2C(=O)OC (stereo not given in full) |  |  |  |  |  |  | > 100 | 
COc1cc2nc(N3CCC[C@@H](NC4=CC(=O)c5ccccc5C4=O)C3)nc(N)c2cc1OC | 4.16 |  |  |  |  |  | 3.78 | GI50 (PC-3 prostate): 1.91 µM; GI50 (DU-145 prostate): 2.03 µM
